Values quoted from earlier work in patent publication US20210153530A1, “FOOD PROTECTING COMPOSITION FOR MEAT, MEAT PRODUCTS AND DAIRY PRODUCTS” (priority 2018, published 2021).

Columns and labels:
moulds and yeasts = conditions: raw pork, heat-treated and pasteurised
[1] = tested on: coliform microorganisms and arerobic spore-forming microorganisms; conditions: raw pork goulash, heat-treated

N=C(N)N [guanidium]
effect on growth of moulds and yeasts (moulds and yeasts): has an effect on the growth
influence on coliform and aerobic spore-forming microorganisms [1]: not significantly influenced
